Measurements published in patent US9612237B2, “Ritalinic acid immunoassay” (Randox Laboratories Limited, priority 2013, dated 2017).
In brackets after ≈: the same amount, converted by molar mass. Structures can show the parent of a compound that is named as a salt. Where two headings read alike, the source gives them in different places.

Legend:
[1] = system: antibodies of the invention (antisera generated in response to immunogen of Example 5); assay: Competitive chemiluminescent biochip immunoassay, antiserum raised against immunogen of Example 5, HRP conjugate of Example 6; assay type: binding, sheep; conditions: for No measurable CR at given concentration: value is the concentration at which no cross-reactivity was exhibited; for Cross-reactivity / IC50: biochip; for Cross-reactivity: based on 100% specificity to RA; for IC50: calibrator concentration which produces 50% B/B0
[2] = system: antisera generated in response to immunogen of Example 11; assay: Competitive chemiluminescent biochip immunoassay, antisera raised against immunogen of Example 11, conjugate of Example 12; assay type: binding, sheep; conditions: for IC50 / % cross reactivity: biochip; for % cross reactivity: relative to methylphenidate = 100
[3] = system: antibodies of the invention (antisera generated in response to immunogen of Example 5); assay: ELISA, antiserum raised against immunogen of Example 5, HRP conjugate of Example 6; assay type: binding, sheep; conditions: for Ave OD: absorbance at 450 nm; for % CR: relative to ritalinic acid = 100
Experimental: Immunogen (2 mg) from Examples 5 or 11 was prepared in PBS, mixed at a ratio of 50% immunogen in PBS to 50% Freund's Complete Adjuvant (Sigma, Product Number F5881) and emulsified by repeatedly passing the mixture through a tip on the end of a 1 ml syringe, until semi-solid. The emulsified mixture (1 ml) was injected intramuscularly into the sheep (the primary immunisation dose). Further injections (boosts) were prepared (1 mg of immunogen is prepared in PBS and mixed at a ratio of 50% immunogen PBS/50% Freunds Incomplete adjuvant, Sigma, Product Number—F5506) and injected (1 ml) intramuscularly at monthly intervals. Serum was sampled monthly by collection of whole blood from the jugular vein for evaluation of the antibody titre. Prior to immobilisation on a solid substrate (for example, the biochip), the serum was purified using caprylic acid/ammonium sulphate precipitation, as described for example in Chapter 4 of “Making and Using Antibodies—A Practical Handbook” 2nd Edition, edited by G C Howard and M R Kaser, CRC Press.
The ELISA data provided below correspond to the same immunogen, antibody and tracer combination used to generate the Biochip standard curves, i.e. antibodies of the invention (antisera generated in response to immunogen of Example 5) and (2-(4-aminophenyl)-2-(piperidin-2-yl) acetic acid conjugated to HRP (Example 6). The assay methodology used to generate the ELISA data was standard ELISA methodology. Briefly, a microtitre plate was coated with Ig fraction of the antiserum produced at 5 μg/ml, prepared in Tris buffer, pH8.5. The coated plate was simultaneously incubated with calibrator/sample (from 0 ng/ml-80 ng/ml) and HRP conjugate at ⅛K dilution. After washing and substrate addition, absorbances were read at 450 nm. The absorbance in each well was inversely proportional to the concentration of ritalinic acid or methylphenidate hydrochloride in the calibrator/sample added to that well.

[4] = system: Abcam polyclonal sheep antibody to MPH; conditions: Abcam antibody raised using MPH-BTG as the immunogen; cited from earlier work
[5] = value is the concentration at which no cross-reactivity was exhibited
[6] = Methylphenidate calibrator 78.13 ng/ml
[7] = Methylphenidate calibrator 156.25 ng/ml
[8] = Methylphenidate calibrator 312.50 ng/ml
[9] = Methylphenidate calibrator 625 ng/ml
[10] = Methylphenidate calibrator 1,250.00 ng/ml
[11] = Methylphenidate calibrator 2,500.00 ng/ml
[12] = Methylphenidate calibrator 5,000.00 ng/ml
[13] = Methylphenidate calibrator 10,000.00 ng/ml

In the case of `Clc1cccc(N2CCNCC2)c1` [mCPP], the “No measurable CR at given concentration” value [1] is reported as 10 µg/mL.

With `CCO[C@@H]1O[C@H](C(=O)O)[C@@H](O)[C@H](O)[C@H]1O` [Ethyl glucuronide] the “Concentration exhibiting no cross-reactivity” value [2, 5] was 100 µg/mL and the “No measurable CR at given concentration” value [1] was 100 µg/mL.

In the case of `COc1cccc(C2(O)CCCCC2CN(C)C)c1` (stereo not drawn) [Tramadol], the “No measurable CR at given concentration” value [1] is reported as 10 µg/mL.

For `N[C@H]1CC[C@@H](c2ccc(Cl)c(Cl)c2)c2ccccc21` [Norsertraline], the “No measurable CR at given concentration” value [1] was 10 µg/mL.

With Dextromorphan the “No measurable CR at given concentration” value [1] was 10 µg/mL.

With `COC(=O)C(c1ccccc1)C1CCCCN1` (stereo not drawn) [Methylphenidate Hydrochloride] the IC50 [3] was >>>80 ng/ml, the “Ave OD” value ([3]; calibrator 1.25 ng/ml) was 1.677 and the “Ave OD” value ([3]; calibrator 2.5 ng/ml) was 1.644. The “Ave OD” value ([3]; calibrator 5 ng/ml) was 1.635, the “Ave OD” value ([3]; calibrator 10 ng/ml) was 1.563 and the “Ave OD” value ([3]; calibrator 20 ng/ml) was 1.476. The “Ave OD” value ([3]; calibrator 40 ng/ml) was 1.402, the “Ave OD” value ([3]; calibrator 80 ng/ml) was 1.311 and the B/Bo ([3]; calibrator 1.25 ng/ml) was 101.9. For the same compound, the B/Bo ([3]; calibrator 2.5 ng/ml) was 99.9, the B/Bo ([3]; calibrator 5 ng/ml) was 99.4 and the B/Bo ([3]; calibrator 10 ng/ml) was 95.0. The B/Bo ([3]; calibrator 20 ng/ml) was 89.7, the B/Bo ([3]; calibrator 40 ng/ml) was 85.2 and the B/Bo ([3]; calibrator 80 ng/ml) was 79.7. For the same compound, the “% CR” value [3] was <<<10.5%.

In the case of `O=C(O)C(c1ccccc1)C1CCCCN1` (stereo not drawn) [RA, ritalinic acid], the IC50 [2] is reported as 260 ng/mL (≈ 1.19 µM), the “% cross reactivity” value [2] is reported as 1% and the “% cross reactivity” value ([2]; listed as ritalinic acid) is reported as 1.0%. It also gave a B/B0 % ([1]; RA calibrator 3.91 ng/ml) of 65%, an RLU ([1]; RA calibrator 3.91 ng/ml) of 3459 RLU and a B/B0 % ([1]; RA calibrator 7.81 ng/ml) of 40%. The RLU ([1]; RA calibrator 7.81 ng/ml) was 2552 RLU, the B/B0 % ([1]; RA calibrator 15.63 ng/ml) was 31% and the RLU ([1]; RA calibrator 15.63 ng/ml) was 1980 RLU. For the same compound, the B/B0 % ([1]; RA calibrator 31.25 ng/ml) was 18%, the RLU ([1]; RA calibrator 31.25 ng/ml) was 1111 RLU and the B/B0 % ([1]; RA calibrator 62.50 ng/ml) was 11%. It also gave an RLU ([1]; RA calibrator 62.50 ng/ml) of 677 RLU, a B/B0 % ([1]; RA calibrator 125.00 ng/ml) of 6% and an RLU ([1]; RA calibrator 125.00 ng/ml) of 374 RLU. For the same compound, the B/B0 % ([1]; RA calibrator 250.00 ng/ml) was 4%, the RLU ([1]; RA calibrator 250.00 ng/ml) was 247 RLU and the B/B0 % ([1]; RA calibrator 500.00 ng/ml) was 2%. For the same compound, the RLU ([1]; RA calibrator 500.00 ng/ml) was 134 RLU, the Cross-reactivity [1] was “Cross-reactivity 100%” and the IC50 [1] was “IC50 = 5.21 ng/ml,”. The IC50 [3] was 8.41 ng/mL, the “Ave OD” value ([3]; calibrator 1.25 ng/ml) was 1.346 and the “Ave OD” value ([3]; calibrator 2.5 ng/ml) was 1.169. The “Ave OD” value ([3]; calibrator 5 ng/ml) was 0.987, the “Ave OD” value ([3]; calibrator 10 ng/ml) was 0.751 and the “Ave OD” value ([3]; calibrator 20 ng/ml) was 0.584. For the same compound, the “Ave OD” value ([3]; calibrator 40 ng/ml) was 0.424, the “Ave OD” value ([3]; calibrator 80 ng/ml) was 0.311 and the B/Bo ([3]; calibrator 1.25 ng/ml) was 82.4. It also gave a B/Bo ([3]; calibrator 2.5 ng/ml) of 71.5, a B/Bo ([3]; calibrator 5 ng/ml) of 60.4 and a B/Bo ([3]; calibrator 10 ng/ml) of 46.0. It also gave a B/Bo ([3]; calibrator 20 ng/ml) of 35.7, a B/Bo ([3]; calibrator 40 ng/ml) of 26.0 and a B/Bo ([3]; calibrator 80 ng/ml) of 19.0. For the same compound, the “% CR” value [3] was 100% and the Cross-reactivity [4] was “less than 0.9%”.

For `CNCCC=C1c2ccccc2CCc2ccccc21` [Nortriptylene], the “No measurable CR at given concentration” value [1] was 10 µg/mL.

In the case of `CCOC(=O)C(c1ccccc1)C1CCCCN1` (stereo not drawn) [Ethylphenidate], the “No measurable CR at given concentration” value [1] is reported as 100 µg/mL.

For `CC(=O)Nc1ccc(O)cc1` [Acetoaminophen], the “Concentration exhibiting no cross-reactivity” value [2, 5] was 2500 µg/mL and the “No measurable CR at given concentration” value [1] was 1000 µg/mL.

In the case of `O=C(O)c1ccccc1O` [Salicylic acid], the “Concentration exhibiting no cross-reactivity” value [2, 5] is reported as 1000 µg/mL and the “No measurable CR at given concentration” value [1] is reported as 1000 µg/mL.

For `CNCCC[C@@]1(c2ccc(F)cc2)OCc2cc(C#N)ccc21` [N-desmethylescilatopram], the “No measurable CR at given concentration” value [1] was 10 µg/mL.

For `COC(=O)C(c1ccccc1)C1CCCCN1` (stereo not drawn) [Methylphenidate, methylphenidate], the IC50 [2] was 2.6 ng/mL (≈ 0.0111 µM), the “% cross reactivity” value [2] was 100% and the B/B0 % [1, 6] was 87%. For the same compound, the RLU [1, 6] was 3878 RLU, the B/B0 % [1, 7] was 81% and the RLU [1, 7] was 3604 RLU. It also gave a B/B0 % [1, 8] of 75%, an RLU [1, 8] of 3319 RLU and a B/B0 % [1, 9] of 66%. For the same compound, the RLU [1, 9] was 2912 RLU, the B/B0 % [1, 10] was 51% and the RLU [1, 10] was 2244 RLU. It also gave a B/B0 % [1, 11] of 34%, an RLU [1, 11] of 1517 RLU and a B/B0 % [1, 12] of 23%. It also gave an RLU [1, 12] of 1015 RLU, a B/B0 % [1, 13] of 16% and an RLU [1, 13] of 697 RLU. The Cross-reactivity [1] was “Cross-reactivity 0.4%” and the IC50 [1] was “IC50 = 1,323.50 ng/ml”.

With `CNCCC(Oc1ccc(C(F)(F)F)cc1)c1ccccc1` (stereo not drawn) [fluoxetine] the “No measurable CR at given concentration” value [1] was 100 µg/mL.

For `CC(C)Cc1ccc(C(C)C(=O)O)cc1` (stereo not drawn) [Ibuprofen], the “Concentration exhibiting no cross-reactivity” value ([2]; value is the concentration at which no cross-reactivity was exhibited, listed as ibuprofen) was 1000 µg/mL and the “No measurable CR at given concentration” value [1] was 1000 µg/mL.

In the case of `CC(=O)Nc1ccc(OC(=O)c2ccccc2OC(C)=O)cc1` [benorylate HCl], the “Concentration exhibiting no cross-reactivity” value [2, 5] is reported as 250 µg/mL.

With `CNCCC=C1c2ccccc2CCc2ccccc21` [nortriptyline HCl] the “Concentration exhibiting no cross-reactivity” value [2] was 10 µg/mL.

With `CCCC(C)(COC(N)=O)COC(N)=O` [meprobamate] the “Concentration exhibiting no cross-reactivity” value [2, 5] was 10 µg/mL.

With `CC(=O)Oc1ccccc1C(=O)O` [aspirin] the “Concentration exhibiting no cross-reactivity” value [2, 5] was 250 µg/mL.

For `O=C(CCCN1CCC(O)(c2ccc(Cl)cc2)CC1)c1ccc(F)cc1` [Haloperidol], the “Concentration exhibiting no cross-reactivity” value [2, 5] was 10 µg/mL and the “No measurable CR at given concentration” value [1] was 10 µg/mL.
